Experimental data taken from patent publication US6011000A, “Compositions for the treatment of blood disorders” (priority 1995, dated 2000).

Legend:
Friend leukemia cells = details: cited from earlier work
[1] = tested on: human fetal (γ) globin gene; details: cited from earlier work
fetal globin = details: pharmacological doses, phenylhydrazine-anemic chickens; cited from earlier work
[2] = tested on: fetal globin expression in K562 human erythroleukemia cells; details: cited from earlier work
histone acetylation = details: cited from earlier work
[3] = tested on: gamma globin (erythroblasts of sickle cell anemia patients); assay: Induction of fetal globin in erythroblasts by steel factor; type: cell-based, human; details: 100 ng/ml
Description: Peripheral blood was obtained from patients with sickle cell anemia. Mononuclear cells were isolated on Ficoll-Hypaque gradients. One culture was treated with 100 ng/ml steel factor for 13 days and compared with an untreated control. […] A second culture was incubated overnight with an identical dose of steel factor plus ^3 H-leucine. Amounts of labeled globin proteins synthesized in untreated (FIG. 5A) and steel factor treated (FIG. 5B) cells were determined by autoradiography and quantitated (scanned) by laser densitometry.

anemic baboon = assay: In vivo reticulocyte proliferation, globin expression and blood counts in anemic (phlebotomized) baboons; details: for Fetal reticulocytes: baseline 4%
Description: Experiments were performed to determine if administration of the chemical compositions could induce fetal globin gene expression in an in vivo model similar to humans (S. P. Perrine et al., Brit. J. Haematol. 88:555-61, 1994). Briefly, chemicals were prepared as sterile pharmaceutical solutions in pH adjusted sterile water. A variety of chemical compositions were administered sequentially to some baboons. After administration of one compound, a wash-out period with no compound administration was maintained until reticulocytes returned to base line prior to administration of the next compound. This was done, at least partly, to compare the magnitude of response which occurred within the same individual animal to different compounds.
Briefly, juvenile female baboons (2 years old) were catheterized with arterial and venous catheters and phlebotomized gradually every day to maintain a moderate anemia of 7.0 to 7.5 grams hemoglobin/dl. Fetal reticulocytes, the newly produced red blood cells containing fetal globin, were assayed using a monoclonal antibody against fetal globin (HbF) as described by G. Dover et al. (Blood 67:735-38, 1986). Briefly, blood was stained with two antibodies, one specific for reticulocytes and another against fetal globin protein. The amount of antibody bound cells was determined by FACS analysis. Globin chain synthesis was assayed as described by J. B. Clegg et al. (J. Mol. Biol. 19:91-108, 1966). Briefly, reticulocytes were radio-labeled with ^3 H-leucine which was incorporated in equal proportions into actively synthesized globin chains. After incubation in leucine-free media, cells were washed, and globin proteins were separated and purified by column chromatography. Radioactivity incorporated into each peak is compared and the ratios of gamma to gamma plus beta globin calculated. Each animal served as its own control with baseline monitoring assays performed for 4-6 weeks before any drug was administered. Phlebotomy was continued daily, so that peripheral HbF levels in the animals were not considered to be accurate over the short treatment time-frames and were not monitored. Safety monitoring was performed by frequent physical examinations, quantitation of food eaten, activity and frequent chemistry and hematology monitoring. Complete blood counts were assayed before, during and after treatment. Results presented were not adjusted to account for the daily phlebotomy.

[4] = tested on: fetal globin synthesis in erythroid progenitors; details: cited from earlier work
[5] = 25 and 100 μg/kg s.c., undetectable before treatment

In the case of CCCC(=O)O [butyric acid], the hemoglobin synthesis (Friend leukemia cells) is listed as “induced hemoglobin synthesis”, the “transcription of the human fetal (γ) globin gene” value [1] is listed as “accurately and specifically stimulated transcription of the human fetal (γ) globin gene” and the “expression of fetal globin” value (fetal globin) is listed as “greatly increased expression of fetal globin”. For the same compound, the “increase of fetal globin expression” value [2] was “much less of an effect” and the “level of histone acetylation” value (histone acetylation) was “may act by increasing the level of histone acetylation”.

With “steel factor: hematopoietic factor, steel factor, also referred to as kit ligand, mast cell growth factor and stem cell factor” the “mean increase in gamma globin expression” value ([3]; 13 days, vs untreated control) was 16.1%, the “gamma globin expression in BFU-e cells” value ([3]; 13 days, from 14%) was 23.3% and the “globin proteins included in the increase” value ([3]; overnight) was “included both G-γ and A-γ globin proteins”. For the same compound, the Gamma globin expression ([3]; overnight + 3H-leucine, untreated 17.6%) was 43.3%, the Fetal reticulocytes (anemic baboon; 25 μg/kg s.c. daily, 4 days (FIG. 10)) was 15% and the Fetal reticulocytes (anemic baboon; 100 μg/kg s.c., four days, after wash-out) was 12%. For the same compound, the “rise in numbers of newly-formed blood cells producing fetal globin” value (anemic baboon; 25 and 100 μg/kg s.c.) was 300-500%, the “total increase of gamma globin expression in the bone marrow” value (anemic baboon; 25 and 100 μg/kg s.c.) was 9 fold and the “fetal globin chain protein” value (anemic baboon; [5]) was “about 3 % of total non-alpha globin”. For the same compound, the “rise in fetal globin chain protein” value (anemic baboon; [5]) was 3 fold and the fetal globin synthesis [4] was “capable of influencing fetal globin synthesis in erythroid progenitors”.
